Test results: PMC11996864, “A small-molecule inhibitor of BCL10-MALT1 interaction abrogates progression of diffuse large B cell lymphoma” (The Journal of Clinical Investigation, 2025)
Several values for one entry are separate records, joined by “and”; a condition that tells them apart may be missing. Identical values can stand only once.

Columns and labels:
OCI-Ly1 cells = experiment: Apoptosis, annexin V/SYTOX Blue flow cytometry; format: cell-based, human
Description: Cell proliferation, viability, and apoptosis assays. […]
Annexin V Alexa 488
(ThermoFisher Scientific, Cat# A13201) and SYTOX Blue Dead Cell (ThermoFisher Scientific, Cat# S34857) stains were used to detect apoptosis in DLBCL cells after treatment with 1 µM compounds for 8 days in TMD8 and OCI-Ly1 and for 5 days in OCI-Ly3 cells, then analyzed with flow cytometry. The percentages of cells in early and late apoptosis were combined for quantification. For CellTrace Violet, CellTiter-glo, and Annexin V apoptosis assays, cell were cultured in media with 50% of the usual serum. […]

[1] = system: IL-2 secretion from primary mouse splenocytes; experiment: Secreted IL-2 ELISA, stimulated primary splenocytes; format: cell-based; settings: for IL-2 protein level (% of control): Suppl Fig. 4B
Description: Plasmids. Plasmids for transfection were verified with Sanger Sequencing. Unless otherwise indicated, plasmids were made by subcloning cDNA fragments from constructs described in previous publications, as noted, and/or site directed mutagenesis. Plasmids in the pcDNA3 or pcDNA3.1 backbone include HA-MALT1(isoform B) (2), HA-MALT1(DD+Ig1-2) (aa 1- […]
MALT1(Ig1-2) V189R, HA-MALT1(Ig1-2) W203_Q205delinsAAA (Vector Builder), HA-MALT1(Ig1-2) H257_Q259delinsAAA (Vector Builder), HA-MALT1(Ig1-2)
P254_P256delinsAAA (Vector Builder), HA-MALT1(Ig1-2) H269_T271delinsAAA (Vector Builder), HA-MALT1(Ig1-2) K272_L274delinsAAA (Vector Builder), HA-MALT1 V189R (Vector Builder), HA-MALT1 V81R, HA-BCL10 (GeneCopoeia, Cat# M0769-M07), HA-BCL10 E53R, Myc-BCL10 (previously called CIPER) (3), Myc-BCL10 E53R, Myc-RICK (4), Myc-MAVS (subcloned from FLAG-MAVS (5)), and empty vector pCDNA3.1HA as a control.
ELISA-based protein-protein interaction assay. On a high-binding 96-well ELISA microplate (Greiner Cat# 655061), 100 ng of His-tagged recombinant human full-length BCL10 protein (Novus Cat# NBP1-99064) or in 100 µl PBS was allowed to adhere overnight at 4°C. The plate was blocked with 5% BSA in PBS for 1 hour at room temperature. After washing twice with PBS-T, a mixture of 100 ng of GST-tagged recombinant human full-length MALT1 protein (Novus Biologicals Cat# H00010892-P01) and compound that was preincubated for 1 hour in 100 μl PBS was added to the plate for 1 hour at room temperature. After washing three times with PBS-T, anti-MALT1 antibody (Cell Signaling Technology, Cat# 2494) in 5% BSA in PBS was added at 1:1000 dilution for 1 hour at room temperature. After washing three times with PBS-T, HRP-conjugated secondary antibody in 5% BSA in PBS was added at 1:5000 dilution for 1 hour at room temperature. After washing three times with PBS-T, 100 µl of 3,3’,5,5’-tetramethylbenzidine (TMB) substrate solution (Thermo Scientific, Cat# 34028) was added for up to 15 minutes, and 100 µl of 2 M sulfuric acid was added to stop the reaction. The plate was read at 450 nm using a spectrophotometer (Molecular Devices SpectraMax i3). The MyoD1/ID ELISA was performed as above except that 100 ng of recombinant human His-tagged MyoD1 (Proteintech, Cat# Ag13186) was plated overnight at 4°C prior to the addition of 100 ng of recombinant human GST-ID1 (Proteintech, Cat# Ag13359) preincubated to with compounds. The anti-GST antibody (clone 26H1, Cell signaling Technology, Cat #2624) was used to detect bound ID1.
Cytokine ELISAs. Cytokines in cell culture supernatants were measured 20-24h after treatment with 0, 0.01, 0.03, 0.1, 0.3, 1, or 3 µM of compounds using the following ELISA kits according to the manufacturer’s instructions: Human IL-2 ELISA (BioLegend Cat# 431804), Human IL-6 ELISA (BioLegend Cat# 430504), and Human IL-10 ELISA (BioLegend Cat# 430604). TMD8 and OCI-Ly3 cells were treated with specific doses of compounds in serum-free media for 20 hours. Jurkat T cells were pretreated with specific doses of compounds for 8 hours in serum-free media, then stimulated with PMA/ionomycin for 16 hours prior to the collection of supernatants.
Mouse splenocytes were isolated from spleens of C57/BL6 mice by passing spleens through a 70 micron filter followed by red blood cell lysis using ACK lysing buffer (Quality Biologics, Cat# 118-156-101). […]
Mouse T-Activator CD3/C28. Supernatant was collected at 24 hours and mouse IL-2 levels were analyzed via ELISA (R&D Systems, Cat# DY402-05).

SMILES: COc1ccc(CNS(=O)(=O)c2ccc(Cc3ccc(S(=O)(=O)NCc4ccc(OC)cc4)cc3)cc2)cc1 [M1i-124d1]
- Percent Apoptotic cells (OCI-Ly1 cells; OCI-Ly1): 9.94% and 10.39% and 9.5% and 11.36% and 12.09% and 11.72%

SMILES: CN1CCCC(CN2c3ccccc3Sc3ccccc32)C1 (stereo not shown) [Mepazine, mepazine, reference compound]
- IL-2 protein level (% of control) ([1]; CD3/CD28 treated, 1 uM): 96.0182 % of control and 76.5551 % of control
- IL-2 protein level (% of control) ([1]; PMA/Iono treated, 1 uM): 66.5904 % of control and 66.2291 % of control

SMILES: O=S(=O)(NCc1ccc2c(c1)OCO2)c1ccc(Cc2ccc(S(=O)(=O)NCc3ccc4c(c3)OCO4)cc2)cc1 [M1i-124]
- IL-2 secretion from primary mouse splenocytes ([1]; 1 μM, PMA/Iono or anti-CD3/CD28, result in words): reduced IL-2 secretion
- IL-2 protein level (% of control) ([1]; CD3/CD28 treated): 50.4652 % of control and 31.9351 % of control and 38.7736 % of control
- IL-2 protein level (% of control) ([1]; PMA/Iono treated): 60.6294 % of control and 65.2902 % of control and 36.6638 % of control
- Annexin (% positivity) (OCI-Ly1 cells; Ly1, individual replicates): 14.6% and 13.45% and 17.85%
